Measurements: ChEMBL document CHEMBL4814007, “Structure-based discovery of SIAIS001 as an oral bioavailability ALK degrader constructed from Alectinib” (Eur J Med Chem, 2021)
Active and inactive are the calls of the source. No cut-off for these calls is given here.

Legend:
SR [1] = experiment: Antiproliferative activity against ALK positive human SR cells; assay type: functional, cell-based
SR [2] = experiment: Induction of cell cycle arrest in human SR cells assessed as increase in accumulation at G1/S phase at 100 nM incubated for 24 hrs; assay type: functional, cell-based
SR [3] = experiment: Induction of cell cycle arrest in human SR cells assessed as increase in accumulation at S phase at 100 nM incubated for 24 hrs; assay type: functional, cell-based
[4] = molecular target: T1, Protein cereblon/ALK tyrosine kinase receptor (Homo sapiens, UniProt Q9UM73+Q96SW2); experiment: Protac activity at CRBN/ALK in human SR cells assessed as increase in ALK degradation at 500 nM by Western blot analysis; assay type: cell-based
[5] = molecular target: T1, Protein cereblon/ALK tyrosine kinase receptor; experiment: Protac activity at CRBN/ALK in human SR cells assessed as protein abundance at 5 nM by Western blot analysis (reference value: 1); assay type: cell-based
[6] = molecular target: T1, Protein cereblon/ALK tyrosine kinase receptor; experiment: Protac activity at CRBN/ALK in human SR cells assessed as protein abundance at 0.05 nM by Western blot analysis (reference value: 1); assay type: cell-based
[7] = molecular target: T1, Protein cereblon/ALK tyrosine kinase receptor; experiment: Protac activity at CRBN/ALK in human SR cells assessed as protein abundance at 0.5 nM by Western blot analysis (reference value: 1); assay type: cell-based
[8] = molecular target: T1, Protein cereblon/ALK tyrosine kinase receptor; experiment: Protac activity at CRBN/ALK in human SR cells assessed as protein abundance at 50 nM by Western blot analysis (reference value: 1); assay type: cell-based
[9] = molecular target: T1, Protein cereblon/ALK tyrosine kinase receptor; experiment: Protac activity at CRBN/ALK in human SR cells assessed as protein abundance at 500 nM by Western blot analysis (reference value: 1); assay type: cell-based
[10] = molecular target: von Hippel-Lindau disease tumor suppressor/ALK tyrosine kinase receptor (Homo sapiens) (UniProt Q9UM73+P40337); experiment: Protac activity at VHL1/ALK in human SR cells assessed as increase in ALK degradation at 500 nM by Western blot analysis; assay type: cell-based
Sequence of von Hippel-Lindau disease tumor suppressor/ALK tyrosine kinase receptor (Homo sapiens) (P40337 whole entry partner): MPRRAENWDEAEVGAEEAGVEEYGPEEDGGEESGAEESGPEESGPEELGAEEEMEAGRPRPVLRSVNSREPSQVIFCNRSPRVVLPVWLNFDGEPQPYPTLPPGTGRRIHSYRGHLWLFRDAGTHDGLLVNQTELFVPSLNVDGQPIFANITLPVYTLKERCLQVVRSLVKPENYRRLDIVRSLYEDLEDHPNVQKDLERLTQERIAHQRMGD
Sequence of von Hippel-Lindau disease tumor suppressor/ALK tyrosine kinase receptor (Homo sapiens) (Q9UM73 19-1620 limits assumed): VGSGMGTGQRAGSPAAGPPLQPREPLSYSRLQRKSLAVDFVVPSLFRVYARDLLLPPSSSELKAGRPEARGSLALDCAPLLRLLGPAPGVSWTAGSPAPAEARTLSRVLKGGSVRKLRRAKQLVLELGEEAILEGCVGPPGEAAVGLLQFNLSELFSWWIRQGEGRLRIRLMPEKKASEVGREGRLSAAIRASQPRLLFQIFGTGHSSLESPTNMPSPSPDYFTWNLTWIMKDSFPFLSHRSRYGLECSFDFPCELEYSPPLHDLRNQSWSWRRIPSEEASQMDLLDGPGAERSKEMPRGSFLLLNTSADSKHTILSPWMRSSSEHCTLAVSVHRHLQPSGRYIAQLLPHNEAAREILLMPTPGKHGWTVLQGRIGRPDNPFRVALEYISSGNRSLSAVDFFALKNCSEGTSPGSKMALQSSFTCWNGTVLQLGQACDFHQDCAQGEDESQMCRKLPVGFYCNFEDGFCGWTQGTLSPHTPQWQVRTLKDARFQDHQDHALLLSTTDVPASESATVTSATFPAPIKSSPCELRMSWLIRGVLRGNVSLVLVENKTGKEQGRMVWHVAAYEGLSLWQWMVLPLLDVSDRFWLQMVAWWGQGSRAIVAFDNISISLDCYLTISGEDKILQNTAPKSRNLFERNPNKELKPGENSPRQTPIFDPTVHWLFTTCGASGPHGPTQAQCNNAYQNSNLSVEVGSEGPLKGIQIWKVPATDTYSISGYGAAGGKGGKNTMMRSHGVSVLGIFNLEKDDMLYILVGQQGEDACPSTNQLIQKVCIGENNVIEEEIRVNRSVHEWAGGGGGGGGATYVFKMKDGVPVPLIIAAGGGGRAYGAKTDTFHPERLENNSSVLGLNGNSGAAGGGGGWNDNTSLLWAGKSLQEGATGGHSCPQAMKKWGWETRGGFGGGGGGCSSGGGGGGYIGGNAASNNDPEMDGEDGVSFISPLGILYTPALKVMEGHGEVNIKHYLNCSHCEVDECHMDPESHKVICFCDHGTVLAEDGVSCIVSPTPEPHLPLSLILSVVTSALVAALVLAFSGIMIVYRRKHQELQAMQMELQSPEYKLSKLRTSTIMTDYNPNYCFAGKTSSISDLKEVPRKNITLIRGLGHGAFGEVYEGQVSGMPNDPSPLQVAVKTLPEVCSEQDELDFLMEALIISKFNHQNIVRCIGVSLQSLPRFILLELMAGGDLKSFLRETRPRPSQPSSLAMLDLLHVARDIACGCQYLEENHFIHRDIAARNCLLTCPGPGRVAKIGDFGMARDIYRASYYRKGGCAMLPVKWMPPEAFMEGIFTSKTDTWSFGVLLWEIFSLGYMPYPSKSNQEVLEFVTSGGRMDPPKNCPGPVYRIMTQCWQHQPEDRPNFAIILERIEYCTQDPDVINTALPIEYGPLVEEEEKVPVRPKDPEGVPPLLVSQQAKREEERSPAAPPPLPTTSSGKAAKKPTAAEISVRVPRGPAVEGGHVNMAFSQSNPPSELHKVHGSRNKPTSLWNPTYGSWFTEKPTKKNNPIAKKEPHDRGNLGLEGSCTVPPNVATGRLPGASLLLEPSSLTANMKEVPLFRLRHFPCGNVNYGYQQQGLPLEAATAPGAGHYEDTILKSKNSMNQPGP

T1 sequence (Q96SW2 whole entry partner): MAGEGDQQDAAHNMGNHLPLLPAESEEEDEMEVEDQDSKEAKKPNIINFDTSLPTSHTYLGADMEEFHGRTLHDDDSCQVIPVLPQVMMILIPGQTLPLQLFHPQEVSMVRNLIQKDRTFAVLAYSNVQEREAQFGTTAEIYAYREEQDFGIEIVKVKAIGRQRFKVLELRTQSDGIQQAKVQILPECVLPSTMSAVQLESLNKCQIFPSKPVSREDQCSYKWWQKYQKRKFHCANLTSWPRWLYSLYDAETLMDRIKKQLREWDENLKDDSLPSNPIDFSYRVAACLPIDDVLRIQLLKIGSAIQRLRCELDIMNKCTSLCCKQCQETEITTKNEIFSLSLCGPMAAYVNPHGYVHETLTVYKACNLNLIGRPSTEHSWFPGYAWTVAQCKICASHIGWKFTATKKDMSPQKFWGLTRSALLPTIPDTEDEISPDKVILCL
T1 sequence (Q9UM73 19-1620 limits assumed): as the sequence (Q9UM73 19-1620 limits assumed) above

| Compound | IC50 (SR [1]) | further results |
| --- | --- | --- |
| COc1cc(N2CCC(N3CCN(C)CC3)CC2)ccc1Nc1ncc(Cl)c(Nc2ccccc2P(C)(C)=O)n1 [BRIGATINIB] | 1.9 nM | – |
| CCc1cc2c(cc1N1CCC(N3CCN(C(=O)CCCCCNc4cccc5c4C(=O)N(C4CCC(=O)NC4=O)C5=O)CC3)CC1)C(C)(C)c1[nH]c3cc(C#N)ccc3c1C2=O (configuration not stated) | 3.4 nM | – |
| CCc1cc2c(cc1N1CCN(C(=O)CCCNc3cccc4c3C(=O)N(C3CCC(=O)NC3=O)C4=O)CC1)C(C)(C)c1[nH]c3cc(C#N)ccc3c1C2=O (configuration not stated) | 9.2 nM | – |
| Cc1cc(Nc2ncc(Cl)c(Nc3ccccc3S(=O)(=O)C(C)C)n2)c(OC(C)C)cc1C1CCN(CCOCCOCCNC(=O)CNc2cccc3c2C(=O)N(C2CCC(=O)NC2=O)C3=O)CC1 (configuration not stated) | 5.9 nM | – |
| CCc1cc2c(cc1N1CCN(C(=O)CCOCCOCCNc3cccc4c3C(=O)N(C3CCC(=O)NC3=O)C4=O)CC1)C(C)(C)c1[nH]c3cc(C#N)ccc3c1C2=O (configuration not stated) | 30.8 nM | – |
| CCc1cc2c(cc1N1CCC(NC(=O)CCCCCNc3cccc4c3C(=O)N(C3CCC(=O)NC3=O)C4=O)CC1)C(C)(C)c1[nH]c3cc(C#N)ccc3c1C2=O (configuration not stated) | 3.8 nM | – |
| CCc1cc2c(cc1N1CCNCC1)C(C)(C)c1[nH]c3cc(C#N)ccc3c1C2=O | 0.8 nM | – |
| CCc1cc2c(cc1N1CCC(N3CCOCC3)CC1)C(C)(C)c1[nH]c3cc(C#N)ccc3c1C2=O [ALECTINIB] | 3.4 nM | Activity (SR [2]): Active; Activity (SR [3]): Active |
| CCc1cc2c(cc1N1CCC(NC(=O)CCCNc3cccc4c3C(=O)N(C3CCC(=O)NC3=O)C4=O)CC1)C(C)(C)c1[nH]c3cc(C#N)ccc3c1C2=O (configuration not stated) | 8.2 nM | – |
| CCc1cc2c(cc1N1CCN(C(=O)CNc3cccc4c3C(=O)N(C3CCC(=O)NC3=O)C4=O)CC1)C(C)(C)c1[nH]c3cc(C#N)ccc3c1C2=O (configuration not stated) | 3.2 nM | Activity [4]: Active; Activity [5]: 0.89; Activity [6]: 1.17; Activity [7]: 1.12; Activity [8]: 0.66; Activity [9]: 0.43 |
| Cc1cc(Nc2ncc(Cl)c(Nc3ccccc3S(=O)(=O)C(C)C)n2)c(OC(C)C)cc1C1CCN(C(=O)NCCOCCOCCOCCOCCOCCNC(=O)CNc2cccc3c2C(=O)N(C2CCC(=O)NC2=O)C3=O)CC1 (configuration not stated) | 13.8 nM | – |
| CCc1cc2c(cc1N1CCN(C(=O)CCOCCOCCOCCOCCNc3cccc4c3C(=O)N(C3CCC(=O)NC3=O)C4=O)CC1)C(C)(C)c1[nH]c3cc(C#N)ccc3c1C2=O (configuration not stated) | 11.9 nM | – |
| CCc1cc2c(cc1N1CCC(N3CCN(CCCCCCC#Cc4cccc5c4CN(C4CCC(=O)NC4=O)C5=O)CC3)CC1)C(C)(C)c1[nH]c3cc(C#N)ccc3c1C2=O (configuration not stated) | 1.6 nM | – |
| CCc1cc2c(cc1N1CCC(N3CCN(CCCCCC#Cc4cccc5c4CN(C4CCC(=O)NC4=O)C5=O)CC3)CC1)C(C)(C)c1[nH]c3cc(C#N)ccc3c1C2=O (configuration not stated) | 1.8 nM | Activity [5]: 0.76; Activity [6]: 1.08; Activity [7]: 1.09; Activity [8]: 0.67; Activity [9]: 0.69 |
| CCc1cc2c(cc1N1CCC(N3CCN(C(=O)CCCCCCCCC(=O)NC(C(=O)N4C[C@H](O)C[C@H]4C(=O)NCc4ccc(-c5scnc5C)cc4)C(C)(C)C)CC3)CC1)C(C)(C)c1[nH]c3cc(C#N)ccc3c1C2=O (single isomer, unassigned) | 18 nM | Activity [10]: Active |
| CCc1cc2c(cc1N1CCC(N3CCN(CCCCCCCC#Cc4cccc5c4CN(C4CCC(=O)NC4=O)C5=O)CC3)CC1)C(C)(C)c1[nH]c3cc(C#N)ccc3c1C2=O (configuration not stated) | 3.3 nM | – |
| COc1cc(N2CCC(NC(=O)CCCCCCCCCC(=O)N[C@@H](C(=O)N3C[C@H](O)C[C@H]3C(=O)NCc3ccc(-c4scnc4C)cc3)C(C)(C)C)CC2)ccc1Nc1ncc(Cl)c(Nc2ccccc2P(C)(C)=O)n1 | 1.1 nM | – |
| CCc1cc2c(cc1N1CCC(N3CCN(C(=O)CCCCNc4cccc5c4CN(C4CCC(=O)NC4=O)C5=O)CC3)CC1)C(C)(C)c1[nH]c3cc(C#N)ccc3c1C2=O (configuration not stated) | 4.7 nM | – |
